Measured values as given in patent US5039684A, “Tetrazole amide derivatives of heterocyclic alkenyl acid and their use as antiallergic substances” (Valeas S. p. A., priority 1989, dated 1991).

Tests used:
[1] = test system: passive cutaneous anaphylaxis; experiment: PCA test on the rat, intravenous administration just before challenge with antigen; assay type: in vivo, rat (male Sprague Dawley); conditions: Rattus norvegicus, iv, immediately before challenge; for inhibition in vivo at 0.3 mg/kg / inhibition in vivo at 1 mg/kg: read-out: inhibition (%); for ED50: read-out: ED50 (conf. lim) P = 0.05
Procedure: (§1) The serum, obtained from rats actively sensitized with ovalbumin (antigen) and suitably diluted, was injected intradermically into the shaven back of male Sprague Dawley rats (2 wheals per rat).
(§2) The rats were treated intravenously after 24 hours with a solution of ovalbumin and Evans blue. Thirty minutes later they were killed and the diameter and intensity of the blue ring formed at the site of the intradermic injection were measured.
(§3) For each treated group (5 per group) the % inhibition was then calculated with respect to the control group.
The pharmacological screening was effected by administering the compounds of the present invention intravenously and orally.
(§4) For intravenous administration (2 ml/kg), those compounds in which R1 =H (see formula I) were dissolved in an aqueous 1% NaHCO3 solution whereas for oral administration (4 ml/Kg) they were either suspended in 0.5% carboxymethylcellulose or dissolved in an aqueous 3% NaHCO3 solution.

[2] = test system: passive cutaneous anaphylaxis; experiment: PCA test on the rat, oral administration before challenge with antigen; assay type: in vivo, rat (male Sprague Dawley); conditions: Rattus norvegicus, po, 5 minutes before challenge, read-out: inhibition (%)
Procedure: The serum, obtained from rats actively sensitized with ovalbumin (antigen) and suitably diluted, was injected intradermically into the shaven back of male Sprague Dawley rats (2 wheals per rat). The rats were treated intravenously after 24 hours with a solution of ovalbumin and Evans blue. Thirty minutes later they were killed and the diameter and intensity of the blue ring formed at the site of the intradermic injection were measured. […] The pharmacological screening was effected by administering the compounds of the present invention intravenously and orally. For intravenous administration (2 ml/kg), those compounds in which R1 =H (see formula I) were dissolved in an aqueous 1% NaHCO3 solution whereas for oral administration (4 ml/Kg) they were either suspended in 0.5% carboxymethylcellulose or dissolved in an aqueous 3% NaHCO3 solution.

[3] = test system: passive cutaneous anaphylaxis; experiment: PCA test on the rat, time response curve after oral administration; assay type: in vivo, rat (male Sprague Dawley); conditions: Rattus norvegicus, oral, 30 mg/kg/os, read-out: inhibition %
Procedure: as §1, §2, §3, §4

[4] = Acute toxicity in the mouse, oral administration; assay type: in vivo; conditions: mouse, in vivo, po, 1000 mg/kg, oral, 1000 mg/kg/os; read-out: mortality (%EAD)
Procedure: (§5) Acute toxicity was evaluated in the mouse by administering the compounds orally at scalar doses to a maximum of 1000 mg/kg to evaluate the 50% lethal dose (LD50). The compounds were administered in carboxymethylcellulose (0.5%) in a volume of […] to male mice (Swiss stock) of average weight 20 g.

mouse = experiment: Acute toxicity in the mouse, oral administration; assay type: in vivo; conditions: oral, 1000 mg/kg/os, 8 treated
Procedure: as §5

[5] = 5 min, 5 minutes before challenge
[6] = 0.25 h, 15 minutes before challenge
[7] = 0.5 h, 30 minutes before challenge
[8] = 1 h, 60 minutes before challenge
[9] = 2 h, 120 minutes before challenge

## O=C(/C=C/c1cccnc1)Nc1nn[nH]n1 [VAL 47-017, N-1H-tetrazol-5-yl-[3-(3-pyridyl)]-acrylamide trans isomer]
[1]
  inhibition in vivo at 0.3 mg/kg: 45.7%
  inhibition in vivo at 1 mg/kg: 71.6%
  inhibition in vivo at 3 mg/kg: 93.9%
  inhibition in vivo at 10 mg/kg: 100%
  ED50: 0.36 mg/kg
[2]
  inhibition in vivo at 3 mg/kg: 21.7%
  inhibition in vivo at 10 mg/kg: 22.8%
  inhibition in vivo at 30 mg/kg: 48.3%
[3]; [5]
  inhibition in vivo at 30 mg/kg: 45%
[3]; [6]
  inhibition in vivo at 30 mg/kg: 7.3%
[3]; [7]
  inhibition in vivo at 30 mg/kg: 1%
[3]; [8]
  inhibition in vivo at 30 mg/kg: 0%
[3]; [9]
  inhibition in vivo at 30 mg/kg: 0%
[4]
  mortality: 0%
mouse
  No. (dead): 0

## O=C(/C=C/c1c[nH]c2ccccc12)Nc1nn[nH]n1 [VAL 47-022, N-1H-tetrazol-5-yl-[3-(3-indolyl)]-acrylamide trans isomer]
[1]
  inhibition in vivo at 0.3 mg/kg: 3.9%
  inhibition in vivo at 1 mg/kg: 43.4%
  inhibition in vivo at 3 mg/kg: 97.1%
  ED50: 1.01 mg/kg
[2]
  inhibition in vivo at 3 mg/kg: 17.8%
  inhibition in vivo at 10 mg/kg: 46.6%
  inhibition in vivo at 30 mg/kg: 40.8%
[3]; [5]
  inhibition in vivo at 30 mg/kg: 62.2%
[3]; [6]
  inhibition in vivo at 30 mg/kg: 52.7%
[3]; [7]
  inhibition in vivo at 30 mg/kg: 33.3%
[3]; [8]
  inhibition in vivo at 30 mg/kg: 19.4%
[3]; [9]
  inhibition in vivo at 30 mg/kg: 8.9%
[4]
  mortality: 0%
mouse
  No. (dead): 0

## O=C(/C=C/c1cccs1)Nc1nn[nH]n1 [VAL 47-024, N-1H-tetrazol-5-yl-[3-(2-thienyl)] acrylamide trans isomer]
[1]
  inhibition in vivo at 1 mg/kg: 18.1%
  inhibition in vivo at 3 mg/kg: 64.9%
  inhibition in vivo at 10 mg/kg: 100%
  ED50: 2.29 mg/kg
[2]
  inhibition in vivo at 3 mg/kg: 30.2%
  inhibition in vivo at 10 mg/kg: 53.8%
  inhibition in vivo at 30 mg/kg: 53.3%
[3]; [5]
  inhibition in vivo at 30 mg/kg: 43.5%
[3]; [6]
  inhibition in vivo at 30 mg/kg: 52.7%
[3]; [7]
  inhibition in vivo at 30 mg/kg: 46.7%
[3]; [8]
  inhibition in vivo at 30 mg/kg: 30.4%
[3]; [9]
  inhibition in vivo at 30 mg/kg: 10.9%
[4]
  mortality: 0%
mouse
  No. (dead): 0

## O=C(/C=C/c1ccsc1)Nc1nn[nH]n1 [VAL 47-034, N-1H-tetrazol-5-yl-[3-(3-thienyl)]-acrylamide trans isomer]
[1]
  inhibition in vivo at 1 mg/kg: 1.3%
  inhibition in vivo at 3 mg/kg: 48.6%
  inhibition in vivo at 10 mg/kg: 63.5%
  ED50: 4.74 mg/kg
[2]
  inhibition in vivo at 3 mg/kg: 0%
  inhibition in vivo at 10 mg/kg: 0%
  inhibition in vivo at 30 mg/kg: 53.4%
[3]; [5]
  inhibition in vivo at 30 mg/kg: 64.5%
[3]; [6]
  inhibition in vivo at 30 mg/kg: 36%
[3]; [7]
  inhibition in vivo at 30 mg/kg: 41.9%
[3]; [8]
  inhibition in vivo at 30 mg/kg: 6.9%
[3]; [9]
  inhibition in vivo at 30 mg/kg: 0%
[4]
  mortality: 25%
mouse
  No. (dead): 2

## O=C(/C=C/c1ccncc1)Nc1nn[nH]n1 [VAL 47-042, N-1H-tetrazol-5-yl-[3-(4-pyridyl)]-acrylamide trans isomer]
[1]
  inhibition in vivo at 0.3 mg/kg: 3.9%
  inhibition in vivo at 1 mg/kg: 41.7%
  inhibition in vivo at 3 mg/kg: 77.8%
  ED50: 1.28 mg/kg
[2]
  inhibition in vivo at 3 mg/kg: 0%
  inhibition in vivo at 10 mg/kg: 5.3%
  inhibition in vivo at 30 mg/kg: 21.4%
[3]; [5]
  inhibition in vivo at 30 mg/kg: 6.3%
[3]; [6]
  inhibition in vivo at 30 mg/kg: 0%
[3]; [7]
  inhibition in vivo at 30 mg/kg: 0.5%
[3]; [8]
  inhibition in vivo at 30 mg/kg: 0%
[3]; [9]
  inhibition in vivo at 30 mg/kg: 0%
[4]
  mortality: 0%
mouse
  No. (dead): 0
